# Measurements taken from ChEMBL document CHEMBL4765473, “PF-07059013: A Noncovalent Modulator of Hemoglobin for Treatment of Sickle Cell Disease” (J Med Chem, 2021).
# Active and inactive are the calls of the source. The rule behind the calls is not given here.
# What was measured:
# [1] = Binding affinity to purified human cross-linked HbS by SPR analysis
# [2] = Modulation of HbS (unknown origin) assessed as stabilization of the oxy-state of hemoglobin by measuring conversion from oxyHb (R) to deoxyHb (T) pre-incubated for 1 hr and measured after 120 mins by oxygen dissociation assay; set-up: species or system Homo sapiens
# [3] = Intrinsic clearance in human hepatocytes assessed per million cells; type: ADME, cell-based, Hepatocyte; conditions: read-out: CLH
# [4] = biological target: T1, Voltage-gated inwardly rectifying potassium channel KCNH2 (Homo sapiens, UniProt Q12809); assay: Binding affinity to human ERG by dofetilide fluorescence polarization binding assay
# T1 sequence (Q12809 whole entry): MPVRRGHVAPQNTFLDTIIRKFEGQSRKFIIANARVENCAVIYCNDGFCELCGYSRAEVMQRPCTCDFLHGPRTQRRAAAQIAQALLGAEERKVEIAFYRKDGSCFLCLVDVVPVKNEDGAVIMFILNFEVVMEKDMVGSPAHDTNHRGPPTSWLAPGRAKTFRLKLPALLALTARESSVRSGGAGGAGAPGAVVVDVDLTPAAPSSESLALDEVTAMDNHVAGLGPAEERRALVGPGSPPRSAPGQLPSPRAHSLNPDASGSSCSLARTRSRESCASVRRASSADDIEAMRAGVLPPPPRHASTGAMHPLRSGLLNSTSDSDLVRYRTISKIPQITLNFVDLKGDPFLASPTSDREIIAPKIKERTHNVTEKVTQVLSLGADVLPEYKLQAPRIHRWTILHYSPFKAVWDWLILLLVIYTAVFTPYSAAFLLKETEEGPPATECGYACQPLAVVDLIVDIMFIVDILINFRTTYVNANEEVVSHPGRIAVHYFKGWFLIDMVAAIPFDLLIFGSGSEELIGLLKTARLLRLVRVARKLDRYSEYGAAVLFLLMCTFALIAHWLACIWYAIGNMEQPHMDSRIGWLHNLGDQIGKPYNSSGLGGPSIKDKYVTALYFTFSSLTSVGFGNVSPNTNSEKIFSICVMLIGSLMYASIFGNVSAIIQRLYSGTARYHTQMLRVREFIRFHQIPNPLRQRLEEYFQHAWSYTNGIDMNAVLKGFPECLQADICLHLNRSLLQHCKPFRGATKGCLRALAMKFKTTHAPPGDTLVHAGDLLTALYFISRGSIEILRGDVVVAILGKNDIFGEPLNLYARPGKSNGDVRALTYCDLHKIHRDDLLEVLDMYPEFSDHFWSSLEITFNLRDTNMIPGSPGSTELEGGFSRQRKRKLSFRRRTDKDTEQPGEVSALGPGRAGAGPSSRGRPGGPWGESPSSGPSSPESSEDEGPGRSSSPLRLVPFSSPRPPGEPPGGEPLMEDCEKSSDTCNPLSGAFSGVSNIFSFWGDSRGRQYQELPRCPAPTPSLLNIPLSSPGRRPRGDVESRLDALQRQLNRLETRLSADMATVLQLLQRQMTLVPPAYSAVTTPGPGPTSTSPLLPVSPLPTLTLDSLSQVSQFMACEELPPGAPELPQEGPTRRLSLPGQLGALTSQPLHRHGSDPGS
# [5] = Distribution coefficient, log D of the compound by shake flask method; type: physicochemical; conditions: octanol/water
# [6] = Drug metabolism in human hepatocytes assessed formation of acyl migration products; type: ADME, cell-based, Hepatocyte
# [7] = Half life in human hepatocytes by NMR analysis; type: ADME, cell-based, Hepatocyte
# [8] = Apparent permeability in MDCK cells; type: ADME, cell-based, Canis lupus familiaris; conditions: dog
# [9] = Protein binding in human blood; type: ADME, tissue-based
# [10] = test system: Mus musculus; assay: Binding to HbS in sickle Townes mouse at 30 to 900 mg/kg, po dosed via gavage measured after 0.5 to 24 hrs by Hemox-analyzer based assay; type: functional, organism-based; conditions: dose 30-900 mg/kg, time 0.5-24 hrs
# [11] = Drug metabolism in human hepatocytes assessed formation of glucuronide metabolites; type: ADME, cell-based, Hepatocyte
# [12] = Drug metabolism in human hepatocytes assessed formation of acyl glucuronides metabolites; type: ADME, cell-based, Hepatocyte
# [13] = Apparent permeability from apical to basolateral side in MDCK-MDR1 cells; type: ADME, cell-based, Canis lupus familiaris; conditions: dog
# [14] = Apparent permeability from basolateral to apical side in MDCK-MDR1 cells; type: ADME, cell-based, Canis lupus familiaris; conditions: dog
# [15] = biological target: T2, Cytochrome P450 1A2 (Homo sapiens, UniProt P05177); assay: Inhibition of CYP1A2 (unknown origin); type: ADME
# T2 sequence (P05177 whole entry): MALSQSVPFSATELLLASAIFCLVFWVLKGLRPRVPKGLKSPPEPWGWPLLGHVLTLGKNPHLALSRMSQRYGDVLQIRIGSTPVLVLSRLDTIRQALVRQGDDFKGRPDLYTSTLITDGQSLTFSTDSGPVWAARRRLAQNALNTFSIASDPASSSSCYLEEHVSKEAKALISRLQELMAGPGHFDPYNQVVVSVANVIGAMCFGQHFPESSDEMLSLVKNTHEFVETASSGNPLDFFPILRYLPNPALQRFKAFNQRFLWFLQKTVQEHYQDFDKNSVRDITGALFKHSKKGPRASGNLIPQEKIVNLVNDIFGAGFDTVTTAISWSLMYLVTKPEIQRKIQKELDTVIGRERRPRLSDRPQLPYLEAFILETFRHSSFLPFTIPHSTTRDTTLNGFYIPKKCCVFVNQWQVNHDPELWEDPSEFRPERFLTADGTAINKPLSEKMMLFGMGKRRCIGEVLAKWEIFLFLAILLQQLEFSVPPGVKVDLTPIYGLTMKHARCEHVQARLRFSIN
# [16] = biological target: T3, Cytochrome P450 2C8 (Homo sapiens, UniProt P10632); assay: Inhibition of CYP2C8 (unknown origin); type: ADME
# T3 sequence (P10632 whole entry): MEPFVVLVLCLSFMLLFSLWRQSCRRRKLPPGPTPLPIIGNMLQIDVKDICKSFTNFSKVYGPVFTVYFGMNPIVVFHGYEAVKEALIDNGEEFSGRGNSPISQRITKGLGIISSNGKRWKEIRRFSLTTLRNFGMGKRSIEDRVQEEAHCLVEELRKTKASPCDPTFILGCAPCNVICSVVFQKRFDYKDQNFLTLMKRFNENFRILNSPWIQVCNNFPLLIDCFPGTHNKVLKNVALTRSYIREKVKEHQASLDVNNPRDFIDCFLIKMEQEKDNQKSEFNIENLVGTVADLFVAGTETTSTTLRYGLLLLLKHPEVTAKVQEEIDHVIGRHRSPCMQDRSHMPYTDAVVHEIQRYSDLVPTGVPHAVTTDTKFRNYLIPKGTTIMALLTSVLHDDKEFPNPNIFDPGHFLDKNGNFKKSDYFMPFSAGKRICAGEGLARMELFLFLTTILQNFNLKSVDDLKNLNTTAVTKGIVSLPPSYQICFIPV
# [17] = biological target: Cytochrome P450 2C9 (Homo sapiens, UniProt P11712); assay: Inhibition of CYP2C9 (unknown origin); type: ADME
# Cytochrome P450 2C9, sequence (P11712 whole entry): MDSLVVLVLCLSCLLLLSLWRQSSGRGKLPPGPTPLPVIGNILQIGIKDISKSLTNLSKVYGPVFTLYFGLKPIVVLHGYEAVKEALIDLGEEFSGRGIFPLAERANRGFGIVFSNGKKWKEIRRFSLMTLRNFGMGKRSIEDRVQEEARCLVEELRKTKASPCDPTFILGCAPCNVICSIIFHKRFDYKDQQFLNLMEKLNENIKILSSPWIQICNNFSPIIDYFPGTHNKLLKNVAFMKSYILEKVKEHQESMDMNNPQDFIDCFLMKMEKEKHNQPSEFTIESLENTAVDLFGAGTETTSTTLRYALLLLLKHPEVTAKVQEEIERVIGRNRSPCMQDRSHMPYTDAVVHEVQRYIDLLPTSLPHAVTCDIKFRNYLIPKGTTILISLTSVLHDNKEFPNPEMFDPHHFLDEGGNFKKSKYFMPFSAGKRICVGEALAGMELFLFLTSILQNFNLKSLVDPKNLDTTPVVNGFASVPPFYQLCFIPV
# [18] = biological target: Cytochrome P450 2D6 (Homo sapiens, UniProt P10635); assay: Inhibition of CYP2D6 (unknown origin); type: ADME
# Cytochrome P450 2D6, sequence (P10635 whole entry): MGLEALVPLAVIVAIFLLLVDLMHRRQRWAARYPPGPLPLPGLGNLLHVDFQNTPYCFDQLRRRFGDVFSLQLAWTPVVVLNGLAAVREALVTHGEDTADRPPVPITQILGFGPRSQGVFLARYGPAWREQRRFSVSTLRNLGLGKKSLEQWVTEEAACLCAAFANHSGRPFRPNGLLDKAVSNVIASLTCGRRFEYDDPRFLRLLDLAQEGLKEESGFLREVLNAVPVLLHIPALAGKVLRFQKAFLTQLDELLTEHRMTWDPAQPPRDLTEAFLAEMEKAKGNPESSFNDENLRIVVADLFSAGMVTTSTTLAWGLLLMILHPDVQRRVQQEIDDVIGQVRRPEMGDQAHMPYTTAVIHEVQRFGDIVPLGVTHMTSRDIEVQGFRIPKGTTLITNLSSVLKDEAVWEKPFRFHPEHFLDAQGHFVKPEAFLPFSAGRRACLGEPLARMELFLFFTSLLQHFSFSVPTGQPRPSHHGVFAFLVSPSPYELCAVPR
# [19] = biological target: Cytochrome P450 3A4 (Homo sapiens, UniProt P08684); assay: Inhibition of CYP3A4 (unknown origin); type: ADME
# Cytochrome P450 3A4, sequence (P08684 whole entry): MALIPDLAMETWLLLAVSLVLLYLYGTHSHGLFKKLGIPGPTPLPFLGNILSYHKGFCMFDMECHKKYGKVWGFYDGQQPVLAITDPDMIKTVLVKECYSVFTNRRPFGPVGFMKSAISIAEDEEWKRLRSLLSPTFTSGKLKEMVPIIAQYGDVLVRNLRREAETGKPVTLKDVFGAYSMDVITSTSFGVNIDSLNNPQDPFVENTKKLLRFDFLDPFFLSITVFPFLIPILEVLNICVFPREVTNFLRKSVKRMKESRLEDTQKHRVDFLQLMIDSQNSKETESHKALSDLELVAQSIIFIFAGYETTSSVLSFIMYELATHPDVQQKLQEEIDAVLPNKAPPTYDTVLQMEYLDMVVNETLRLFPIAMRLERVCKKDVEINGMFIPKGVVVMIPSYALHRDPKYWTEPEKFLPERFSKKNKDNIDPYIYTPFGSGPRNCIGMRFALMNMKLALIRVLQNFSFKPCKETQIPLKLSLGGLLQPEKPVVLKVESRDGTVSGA
# [20] = Unbound fraction in human plasma; type: ADME, cell-free
# [21] = Protein binding in human RBC assessed as unbound fraction at 1 mM; type: ADME, tissue-based, Erythrocyte; conditions: red blood cells (RBC)
# [22] = biological target: T1, Voltage-gated inwardly rectifying potassium channel KCNH2; assay: Inhibition of human ERG by patch clamp assay
# [23] = Kinetic solubility of the compound; type: physicochemical; conditions: read-out: Kinetic_solubility
# [24] = Thermodynamic solubility of the compound; type: physicochemical; conditions: read-out: Therm_solubility
# [25] = species on record: Homo sapiens; assay: Binding affinity to HbS tetramer (unknown origin) by ESI-MS analysis; conditions: filed as modulator
# [26] = test system: Mus musculus; assay: Binding to HbS in sickle Townes mouse at 10 to 490 mg/kg, po dosed via gavage measured after 0.5 to 24 hrs by Hemox-analyzer based assay; type: functional, organism-based; conditions: dose 10-490 mg/kg, time 0.5-24 hrs
# [27] = Modulation activity at HbS in sickle Townes mouse assessed as decrease in RBC sickling at 200 mg/kg, po BID for 15 days dosed via gavage by Hemox-analyzer based assay; type: functional; set-up: scale not given: the % may be the effect or the level left; conditions: time 15 day
# [28] = species on record: Homo sapiens; assay: Binding affinity to HbS (unknown origin) by ITC analysis; conditions: filed as modulator
# [29] = Intrinsic clearance in mouse hepatocytes assessed per million cells; type: ADME, cell-based, Hepatocyte; conditions: read-out: CLH
# [30] = biological target: T4, CYP1A2 (Homo sapiens, UniProt P05177); assay: Inhibition of CYP1A2 (unknown origin) at 3 uM relative to control; type: ADME
# T4 sequence (P05177 whole entry): T2 sequence (P05177 whole entry)
# [31] = biological target: CYP2D6 (Homo sapiens, UniProt P10635); assay: Inhibition of CYP2D6 (unknown origin) at 3 uM relative to control; type: ADME
# CYP2D6, sequence (P10635 whole entry): as the sequence (P10635 whole entry) above
# [32] = biological target: T5, CYP2C8 (Homo sapiens, UniProt P10632); assay: Inhibition of CYP2C8 (unknown origin) at 3 uM relative to control; type: ADME
# T5 sequence (P10632 whole entry): T3 sequence (P10632 whole entry)
# [33] = biological target: CYP2C9 (Homo sapiens, UniProt P11712); assay: Inhibition of CYP2C9 (unknown origin) at 3 uM relative to control; type: ADME
# CYP2C9, sequence (P11712 whole entry): as the sequence (P11712 whole entry) above
# [34] = biological target: CYP3A4 (Homo sapiens, UniProt P08684); assay: Inhibition of CYP3A4 (unknown origin) at 3 uM relative to control; type: ADME
# CYP3A4, sequence (P08684 whole entry): as the sequence (P08684 whole entry) above
SMILES,Kd [1] [µM],IC50 [2] [µM],hepatocyte CLint [3] [µL/min/1e6 cells],logD [5],Ki [4] [µM],other results
C=CCOC(=O)[C@H]1O[C@@H](OC(=O)c2ccc(-n3cccn3)c([C@H](C)Oc3cc4cc(F)cc(F)c4nc3N)c2)[C@H](O)[C@@H](O)[C@@H]1O,,,,,,Drug metabolism [6]: Metabolite_Detected; half-life [7]: 2.18 h
C[C@H](Oc1cc2ccccc2nc1N)c1cc(F)ccc1-n1cccn1,1.5,17,,4,,
C[C@H](Oc1cc2c(F)ccc(F)c2nc1N)c1cc(C(=O)O)ccc1-n1cccn1,0.064,4.5,< 3,1.1,,
C[C@H](Oc1cc2cc(F)cc(F)c2nc1N)c1cc(C(=O)O)ccc1-n1cccn1,0.037,4.6,< 3,1,40,Papp [8]: 3 ×10⁻⁶ cm/s; PB [9]: Dose-dependent effect; PPB [10]: Dose-dependent effect; Drug metabolism [11]: Metabolite_Detected; Drug metabolism [12]: Metabolite_Detected; Papp A→B [13]: 0.4 ×10⁻⁶ cm/s; Papp B→A [14]: 4 ×10⁻⁶ cm/s; IC50 [15]: > 30 µM; IC50 [16]: 17.3 µM; IC50 [17]: 20.6 µM; IC50 [18]: > 30 µM; IC50 [19]: > 30 µM; fraction unbound [20]: 0.027; fraction unbound at 1000 µM [21]: 0.000577; IC50 [22]: 144 µM
C[C@H](Oc1cc2cc(C(N)=O)ccc2nc1N)c1nc(OCCO)ccc1-n1cccn1,0.142,5.3,3,1.8,,
C[C@H](Oc1cc2cc(C(N)=O)ccc2nc1N)c1cc2[nH]ncc2cc1-n1cccn1,0.036,5.5,< 3,2.7,13,Papp [8]: 1.4 ×10⁻⁶ cm/s
Cc1n[nH]cc1-c1cnc(N)c(OC(C)c2cc(F)ccc2-n2cccn2)c1 (racemic),,,,,,Activity [25]: Active
C[C@H](Oc1cc2cc(F)ccc2nc1N)c1cc(C(=O)O)ccc1-n1cccn1,0.1,4.9,4,0.9,> 40,
C[C@H](Oc1cc2cc(C#N)ccc2nc1N)c1cc(F)ccc1-n1cccn1,0.322,6.1,40,3.8,> 40,
C[C@H](Oc1cc2cc(F)ccc2nc1N)c1cc(F)c(F)cc1-n1cccn1,0.115,5.7,57,4.1,4.4,
Cc1n[nH]cc1-c1cnc(N)c(O[C@@H](C)c2cc(F)ccc2-n2cccn2)c1,3.6,21,23,3.2,3.8,Activity [28]: Active; Papp [8]: 24 ×10⁻⁶ cm/s; hepatocyte CLint [29]: 104 µL/min/1e6 cells; inhibition at 3 µM [30]: < 50%; inhibition at 3 µM [31]: < 50%; inhibition at 3 µM [32]: < 50%; inhibition at 3 µM [33]: < 50%; inhibition at 3 µM [34]: < 50%
C[C@H](Oc1cc2cc(C#N)ccc2nc1N)c1cc(F)c(F)cc1-n1cccn1,0.381,5.5,24,4.3,19,

# Now from value to compound, other results behind:
Kd [1] [µM],IC50 [2] [µM],hepatocyte CLint [3] [µL/min/1e6 cells],logD [5],SMILES,Ki [4] [µM],other results
0.009,3.7,21,0.5,C[C@H](Oc1cc2cc(F)ccc2nc1N)c1cc2c(cnn2CC(=O)O)cc1-n1cccn1,> 40,
0.183,5.4,< 2,1.9,C[C@H](Oc1cc2cc(C(N)=O)ccc2nc1N)c1ncc(F)cc1-n1cccn1,34,solubility kinetic [23]: 28.5 µg/mL; solubility thermodynamic [24]: 5.3 µg/mL
0.014,4.3,17,2.6,C[C@H](Oc1cc2cc(F)cc(F)c2nc1N)c1[nH]c(=O)ccc1-n1cccn1,63,
0.02,4.5,,3.3,C[C@H](Oc1cc2cc(F)ccc2nc1N)c1cc2c(cnn2CCO)cc1-n1cccn1,8.3,
0.122,5.4,14,3.2,C[C@H](Oc1cc2cc(C(N)=O)ccc2nc1N)c1cc(F)c(F)cc1-n1cccn1,4.1,
0.068,3.9,4,2.1,C[C@H](Oc1cc2cc(C(N)=O)cc(F)c2nc1N)c1ncc(F)cc1-n1cccn1,> 40,solubility kinetic [23]: 0.5 µg/mL; solubility thermodynamic [24]: 0.6 µg/mL
0.034,4.8,18,2.4,C[C@H](Oc1cc2cc(F)ccc2nc1N)c1[nH]c(=O)ccc1-n1cccn1 [PF-07059013],> 36,Papp [8]: 20 ×10⁻⁶ cm/s; PB [9]: Dose-dependent effect; PPB [26]: Dose-dependent effect; Activity [27]: 37.8%; Drug metabolism [11]: Metabolite_Detected; Papp A→B [13]: 0.1 ×10⁻⁶ cm/s; Papp B→A [14]: 14 ×10⁻⁶ cm/s; IC50 [15]: 24.4 µM; IC50 [16]: 21.8 µM; IC50 [17]: 24.9 µM; IC50 [18]: > 30 µM; IC50 [19]: > 30 µM; fraction unbound [20]: 0.162; fraction unbound at 1000 µM [21]: 0.000598; IC50 [22]: 43 µM
0.059,4.3,4,2.1,C[C@H](Oc1cc2cc(C(N)=O)ccc2nc1N)c1cc2c(cnn2CCO)cc1-n1cccn1,> 40,
> 300,,,,Cc1n[nH]cc1-c1cnc(N)c(O[C@H](C)c2cc(F)ccc2-n2cccn2)c1,,
0.402,11,13,3,C[C@H](Oc1cc2cc(C(N)=O)ccc2nc1N)c1cc(F)ccc1-n1cccn1,24,
